Where two headings read alike, the source gives them in different places.
Columns and labels:
CDK2/Cyclin A complex = CDK2/Cyclin A complex (Homo sapiens, UniProt P24941); experiment: CDK2/Cyclin A assay; type: biochemical; conditions: Table 2
Outline: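 Radiometric assay: 150 nM CDK2/cyclin A (insect-cell CDK2, truncated cyclin A) phosphorylates His-tagged Rb fragment (residues 386-928) with 25 μM ATP plus [32P]ATP, pH 7.4 HEPES, 2% DMSO, 30 °C for 20 min. Filter-captured product counted by phosphorimager; apparent Ki from competitive or tight-binding inhibition fits.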

[1] = biological target: T1, phosphorylated VEGF-R2Δ50 (Homo sapiens, UniProt P35968, DEL940-989/E990V); experiment: VEGF-R2 ELISA assay; type: biochemical; conditions: for Ki: * determined with ELISA assay, read-out: FLVK-P Ki; for FLVK-P % inhibition @ 300*: at 300 (head μM)
T1 construct: VEGF-R2Δ50 contains residues 806-939 and 990-1171; made in house; host or cells: baculovirus/insect cells
T1 sequence (P35968 with tags, fused parts or gaps DEL940-989/E990V limits assumed): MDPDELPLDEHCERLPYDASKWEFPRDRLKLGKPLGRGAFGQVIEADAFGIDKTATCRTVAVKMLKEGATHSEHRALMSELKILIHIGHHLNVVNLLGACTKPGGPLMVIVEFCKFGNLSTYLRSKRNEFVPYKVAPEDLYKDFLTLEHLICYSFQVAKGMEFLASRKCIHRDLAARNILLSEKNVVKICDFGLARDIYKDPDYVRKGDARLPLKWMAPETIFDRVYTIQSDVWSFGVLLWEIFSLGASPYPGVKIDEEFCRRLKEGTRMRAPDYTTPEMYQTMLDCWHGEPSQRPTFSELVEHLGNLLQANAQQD
From the text: VEGF-R2 Construct for Assay: This construct determines the ability of a test compound to inhibit tyrosine kinase activity. A construct (VEGF-R2Δ50) of the cytosolic domain of human vascular endothelial growth factor receptor 2 (VEGF-R2) lacking the 50 central residues of the 68 residues of the kinase insert domain was expressed in a baculovirus/insect cell system. Of the 1356 residues of full-length VEGF-R2, VEGF-R2Δ50 contains residues 806-939 and 990-1171, and also one point mutation (E990V) within the kinase insert domain relative to wild-type VEGF-R2. Autophosphorylation of the purified construct was performed by incubation of the enzyme at a concentration of 4 μM in the presence of 3 mM ATP and 40 mM MgCl2 in 100 mM Hepes, pH 7.5, containing 5% glycerol and 5 mM DTT, at 4° C. for 2 h. […] See Parast et al., Biochemistry, 37, 16788-16801 (1998).
Formation of phosphogastrin was monitored using biotinylated gastrin peptide (1-17) as substrate. Biotinylated phosphogastrin was immobilized using streptavidin coated 96-well microtiter plates followed by detection using anti-phosphotyrosine-antibody conjugated to horseradish peroxidase. The activity of horseradish peroxidase was monitored using 2,2′-azino-di-[3-ethylbenzathiazoline sulfonate(6)]diammonium salt (ABTS). Typical assay solutions contained: 2 μM biotinylated gastrin peptide; 5 mM DTT; 20 μM ATP; 26 mM MgCl2; and 2 mM MnCl2 in 200 mM Hepes, pH 7.5. The assay was initiated with 0.8 nM of phosphorylated VEGF-R2Δ50. Horseradish peroxidase activity was assayed using ABTS, 10 mM. The horseradish peroxidase reaction was quenched by addition of acid (H2SO4), followed by absorbance reading at 405 nm. Ki values were determined by measuring enzyme activity in the presence of varying concentrations of test compounds. The data were analyzed using Enzyme Kinetic and Kaleidagraph software.

CDK4/Cyclin D3 complex = biological target: T2, CDK4/Cyclin D3 complex (Homo sapiens, UniProt P11802); experiment: CDK4/Cyclin D assay; type: biochemical; conditions: Table 2; for inhibition at 100 µM: at 100 (printed 100 or 100 μM)
T2 construct: made in house; host or cells: insect cells co-infected with baculovirus vectors
T2 sequence (P11802 whole entry): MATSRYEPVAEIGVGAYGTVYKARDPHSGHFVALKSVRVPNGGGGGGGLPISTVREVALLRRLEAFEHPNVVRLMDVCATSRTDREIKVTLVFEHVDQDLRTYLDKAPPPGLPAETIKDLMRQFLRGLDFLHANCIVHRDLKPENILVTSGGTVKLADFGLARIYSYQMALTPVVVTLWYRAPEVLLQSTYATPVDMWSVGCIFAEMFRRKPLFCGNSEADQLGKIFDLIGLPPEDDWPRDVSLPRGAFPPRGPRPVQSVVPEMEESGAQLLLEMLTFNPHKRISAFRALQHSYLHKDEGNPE
T2 sequence (P30281 whole entry partner): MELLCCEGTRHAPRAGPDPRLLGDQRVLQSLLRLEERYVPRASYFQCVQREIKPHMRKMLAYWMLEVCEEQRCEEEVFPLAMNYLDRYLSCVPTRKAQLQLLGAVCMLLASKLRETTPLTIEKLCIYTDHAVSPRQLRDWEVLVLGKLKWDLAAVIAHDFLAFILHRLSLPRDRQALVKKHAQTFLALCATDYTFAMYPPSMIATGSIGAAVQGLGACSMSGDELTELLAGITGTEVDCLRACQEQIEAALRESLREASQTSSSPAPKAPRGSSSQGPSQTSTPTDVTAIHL
Outline: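 Insect-cell-expressed CDK4/cyclin D3 (50 nM) phosphorylating His-tagged Rb fragment (residues 386-928) with 25 μM [^32P]ATP in HEPES pH 7.4, MgCl2, 2% DMSO; 20 min at 30 °C, EDTA stop. Filter-captured 32P by phosphorimager; apparent Ki from competitive or tight-binding inhibition fits.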

[2] = system: human umbilical vein endothelial cells (HUVEC); experiment: HUVEC proliferation assay; type: cell-based; conditions: Homo sapiens, HUVEC, Table 1
Outline: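 Readout was MTT dye reduction (A595) after 72 h of stimulation with VEGF at 6 ng/ml final. Compound, in 0.1% DMSO final, was added 1 h before VEGF to HUVEC starved 24 h in 1% FBS. % inhibition was scaled between VEGF-alone and unstimulated wells; IC50 was fitted from triplicate dose curves.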

[3] = system: lung cancer cells (line MV522); experiment: Cancer cell proliferation (MV522) assay; type: cell-based; conditions: MV522, Table 1

## Nc1nc(Nc2ccc(S(N)(=O)=O)cc2)sc1-c1nc(-c2ccc(O)cc2)cs1 [A(8), 4-[4′-Amino-4-(4-hydroxy-phenyl)-[2,5′]bithiazolyl-2′-ylamino]-benzenesulfonamide]
CDK2/Cyclin A complex
  Ki: 800 nM
[1]; Table 2
  Ki: 58 nM
CDK4/Cyclin D3 complex
  Ki: 420 nM

## COc1cc(Nc2nc(N)c(-c3nc(-c4cccc(NC(=O)Oc5ccccc5)c4)cs3)s2)cc(OC)c1OC [D(4), {3-[4′-Amino-2′-(3,4,5-trimethoxy-phenylamino)-[2,5′]bithiazolyl-4-yl]-phenyl}-carbamic acid phenyl ester]
[1]; Table 1
  Ki: 7.6 nM
[2]
  IC50: 240 nM
[3]
  IC50: > 10000 nM

## COc1cc(Nc2nc(N)c(-c3nc(-c4cccc(NC(=O)Cc5ccccc5)c4)cs3)s2)cc(OC)c1OC [D(5), N-{3-[4′-Amino-2′-(3,4,5-trimethoxy-phenylamino)-[2,5′]bithiazolyl-4-yl]-phenyl}-2-phenyl-acetamide]
[1]; Table 1
  Ki: 63 nM

## COC(=O)Nc1cccc(-c2csc(-c3sc(Nc4cc(OC)c(OC)c(OC)c4)nc3N)n2)c1 [D(6), {3-[4′-Amino-2′-(3,4,5-trimethoxy-phenylamino)-[2,5′]bithiazolyl-4-yl]-phenyl}-carbamic acid methyl ester]
[1]; Table 1
  Ki: 25 nM

## CNC(=O)Nc1cccc(-c2csc(-c3sc(Nc4cc(OC)c(OC)c(OC)c4)nc3N)n2)c1 [D(7), 1-{3-[4′-Amino-2′-(3,4,5-trimethoxy-phenylamino)-[2,5′]bithiazolyl-4-yl]-phenyl}-3-methyl-urea]
[1]; Table 1
  Ki: 120 nM

## CCC(=O)Nc1cccc(-c2csc(-c3sc(Nc4cc(OC)c(OC)c(OC)c4)nc3N)n2)c1 [D(8), N-{3-[4′-Amino-2′-(3,4,5-trimethoxy-phenylamino)-[2,5′]bithiazolyl-4-yl]-phenyl}-propionamide]
[1]; Table 1
  Ki: 29 nM

## COc1cc(Nc2nc(N)c(-c3nc(-c4cccc(NC(=O)CC(C)C)c4)cs3)s2)cc(OC)c1OC [D(9)]
[1]; Table 1
  Ki: 47 nM

## COc1cc(Nc2nc(N)c(-c3nc(-c4cccc(NC(=O)OC(C)C)c4)cs3)s2)cc(OC)c1OC [D(10), {3-[4′-Amino-2′-(3,4,5-trimethoxy-phenylamino)-[2,5′]bithiazolyl-4-yl]-phenyl}-carbamic acid isopropyl ester]
[1]; Table 1
  Ki: 56 nM

## COc1cc(Nc2nc(N)c(-c3nc(-c4cccc(NC(=O)C(F)(F)F)c4)cs3)s2)cc(OC)c1OC [D(13), N-{^3-[4′-Amino-2′-(3,4,5-trimethoxy-phenylamino)-[2,5′]bithiazolyl-4-yl]-phenyl}-2,2,2-trifluoro-acetamide]
[1]; Table 1
  Ki: 120 nM

## COc1cc(Nc2nc(N)c(-c3nc(-c4cccc(NC(=O)C(F)F)c4)cs3)s2)cc(OC)c1OC [D(14), N-{3-[4′-Amino-2′-(3,4,5-trimethoxy-phenylamino)-[2,5′]bithiazolyl-4-yl]-phenyl}-2,2-difluoro-acetamide]
[1]; Table 1
  Ki: 120 nM

## COc1cc(Nc2nc(N)c(-c3nc(-c4cccc(NC(=O)COc5ccccc5)c4)cs3)s2)cc(OC)c1OC [D(15), N-{3-[4′-Amino-2′-(3,4,5-trimethoxy-phenylamino)-[2,5′]bithiazolyl-4-yl]-phenyl}-2-phenoxy-acetamide]
[1]; Table 1
  Ki: 240 nM

## COc1cc(Nc2nc(N)c(-c3nc(-c4cccc(NC(=O)c5cc6ccccc6o5)c4)cs3)s2)cc(OC)c1OC [D(21), Benzofuran-2-carboxylic acid {3-[4′-amino-2′-(3,4,5-trimethoxy-phenylamino)-[2,5′]bithiazolyl-4-yl]-phenyl}-amide]
[1]; Table 1
  Ki: 60 nM
[2]
  IC50: 200 nM
[3]
  IC50: > 10000 nM

## COc1cc(Nc2nc(N)c(-c3nc(-c4cccc(NC(=O)Oc5cccc6ccccc56)c4)cs3)s2)cc(OC)c1OC [D(22), {3-[4′-Amino-2′-(3,4,5-trimethoxy-phenylamino)-[2,5′]bithiazolyl-4-yl]-phenyl}-carbamic acid naphthalen-1-yl ester]
[1]; Table 1
  Ki: 89 nM

## COc1cc(Nc2nc(N)c(-c3ccccn3)s2)cc(OC)c1OC [G(1), 5-Pyridin-2-yl-N^2-(3,4,5-trimethoxy-phenyl)-thiazole-2,4-diamine]
[1]; Table 2
  Ki: 57000 nM
CDK4/Cyclin D3 complex
  Ki: 50000 nM

## Nc1nc(Nc2ccccc2)sc1-c1ccccn1 [G(2), N^2-Phenyl-5-pyridin-2-yl-thiazole-2,4-diamine]
[1]; Table 2, ELISA assay, at 100 (head μM)
  FLVK-P % inhibition @ 100*: 18% @
CDK4/Cyclin D3 complex
  Ki: 5700 nM

## Nc1nc(Nc2ccc3c(c2)OCCO3)sc1-c1ccccn1 [G(3), N^2-(2,3-Dihydro-benzo[1,4]dioxin-6-yl)-5-pyridin-2-yl-thiazole-2,4-diamine]
[1]; Table 2, ELISA assay, at 20 (head μM)
  FLVK-P % inhibition @ 20*: 13% @
CDK4/Cyclin D3 complex
  Ki: 6200 nM

## COc1ccc(Nc2nc(N)c(-c3ccccn3)s2)cc1OC [G(4), N^2-(3,4-Dimethoxy-phenyl)-5-pyridin-2-yl-thiazole-2,4-diamine]
[1]; Table 2, ELISA assay
  FLVK-P % inhibition @ 300*: 42% @
CDK4/Cyclin D3 complex
  Ki: 11400 nM

## COc1cc(Nc2nc(N)c(-c3noc(-c4ccsc4)n3)s2)cc(OC)c1OC [G(7), 5-(5-Thiophen-3-yl-[1,2,4]oxadiazol-3-yl)-N^2-(3,4,5-trimethoxy-phenyl)-thiazole-2,4-diamine]
CDK2/Cyclin A complex; at 10 (head μM)
  CDK2 % inhibition @ 10: 21% @
[1]; Table 2
  Ki: 1600 nM

## Nc1nc(Nc2ccc(S(N)(=O)=O)cc2)sc1-c1nc(O)cs1 [H(1), 4-(4′-Amino-4-hydroxy-[2,5′]bithiazolyl-2′-ylamino)-benzenesulfonamide]
CDK2/Cyclin A complex
  Ki: 650 nM
[1]; Table 2
  Ki: 3600 nM
CDK4/Cyclin D3 complex
  Ki: 3800 nM

## CN(C)c1ccc(Nc2nc(N)c(-c3nc(O)c(-c4ccccc4O)s3)s2)cc1 [H(3), 4′-Amino-2′-(4-dimethylamino-phenylamino)-5-(2-hydroxy-phenyl)-[2,5′]bithiazoly-4-ol]
CDK2/Cyclin A complex
  Ki: 8800 nM
[1]; Table 2
  Ki: 6100 nM
CDK4/Cyclin D3 complex
  Ki: 1700 nM

## COc1cc(Nc2nc(N)c(C3=NC(CC(C)C)CO3)s2)cc(OC)c1OC (stereo not drawn) [I(3), S-5-(4-Isobutyl-4,5-dihydro-oxazol-2-yl)-N^2-(3,4,5-trimethoxyl-phenyl)-thiazole-2,4-diamine]
[1]; Table 2, ELISA assay
  FLVK-P % inhibition @ 300*: 40% @
CDK4/Cyclin D3 complex
  inhibition at 100 µM: < 0%

## Nc1nc(Nc2ccc(S(N)(=O)=O)cc2)sc1C1=NC(c2ccccc2)CO1 (stereo not drawn) [I(5), S-4-[4-Amino-5-(4-phenyl-4,5-dihydro-oxazol-2-yl)-thiazol-2-ylamino]-benzenesulfonamide]
[1]; Table 2
  Ki: 770 nM
CDK4/Cyclin D3 complex
  inhibition at 100 µM: 47%

## COc1cc(Nc2nc(N)c(C3=N[C@H](c4ccccc4)CO3)s2)cc(OC)c1OC [I(7), R-5-(4-Phenyl-4,5-dihydro-oxazol-2-yl)-N^2-(3,4,5-trimethoxyl-phenyl)-thiazole-2,4-diamine]
[1]; Table 2
  Ki: 5200 nM

## COc1cc(Nc2nc(N)c(C3=N[C@H](C)[C@H](c4ccccc4)O3)s2)cc(OC)c1OC [I(18), 5-(4(R)-Methyl-5(S)-phenyl-4,5-dihydro-oxazol-2-yl)-N^2-(3,4,5-trimethoxy-phenyl)-thiazole-2,4-diamine]
[1]; Table 2
  Ki: 2700 nM

## COc1cc(Nc2nc(N)c(-c3nn[nH]n3)s2)cc(OC)c1OC [J(1), 5-(2H-Tetrazol-5-yl-)-N-(3,4,5-trimethoxyl)-thiazole-2,4-diamine]
[1]; Table 2
  Ki: 64000 nM
CDK4/Cyclin D3 complex
  inhibition at 100 µM: < 0%

## CN(C)c1ccc(Nc2nc(N)c(-c3nn[nH]n3)s2)cc1 [J(2), N-(4-Dimethylamino-phenyl)-5-(2H-tetrazol-5-yl)-thiazole-2,4-diamine]
[1]; Table 2
  Ki: 53000 nM
CDK4/Cyclin D3 complex
  inhibition at 100 µM: 29%
